From patent US20020115704A1, “Treatment method” (priority 2000, published 2002)

Tests used:
[1] = test system: 5-HT1A receptors or 5-HT1D receptors; details: cited from earlier work
males [2] = details: apomorphine: human males; cited from earlier work
[3] = test system: ovariectomised, oestrogen+progesterone-primed female rats; details: cited from earlier work
female Macaca arctoides = experiment: Sexual behaviour of the male with the drug-treated female Macaca arctoides; assay type: in vivo; details: for Sexual desire and arousal in female primates: conclusion from the male's behaviour with the treated female; for Copulations with ejaculation (FIG. 1A) / Copulations without ejaculation (FIG. 1B) / Total number of copulations, with and without ejaculation pooled (FIG. 1C) / Number of short time mounts (FIG. 1D): i.m. to the female, n=4, vs saline; for Copulations with ejaculation (FIG. 1A) / Copulations without ejaculation (FIG. 1B): atipamezole 0.03 and 0.3 mg/kg, apomorphine 0.125 and 0.25 mg/kg, or combinations, 20 min observation; for Total number of copulations, with and without ejaculation pooled (FIG. 1C) / Number of short time mounts (FIG. 1D): same doses; for Total number of copulations, with and without ejaculation pooled (FIG. 1C): atipamezole F2,11=5.00, p=0.05; for Number of short time mounts (FIG. 1D): atipamezole F2,11=7.55, p<0.03
Method: This example investigated whether the administration a specific alpha2-adrenoceptor antagonist, atipamezole, a dopamine agonist, apomorphine, or their combination into a female Macaca arctoides produces changes in the sexual behaviour of the female with a male.
The experiments were performed using four female and two male Macaca arctoides monkeys born in captivity. The ages of the adult females were 13 and 16 years and those of the aged females 23 and 25 years. The ages of the males were 14 and 23 years. The females were sexually mature and with normal hormonal cycles.
During the testing period, the monkeys were housed individually in stainless-steel cages. They were fed commercially available food twice each day, and water was always available. Females were weighed before the first injection of each series and doses were adjusted accordingly when appropriate. Sexual behaviour was tested between 11.00 and 16.00 h. The same test cage and testing procedure were used in all experiments. One experienced observer, blind to the treatment, viewed the animals at a distance of about 0.5 m from the cage.
During the testing period, the couple being tested was housed in a single case (0.6×0.9×1.2 m) with two compartments. During the first 10 min of each session, a sliding wall made of steel bars separated the male and the female in the test cage. The monkeys could see and touch each other through this wall. Between the testing sessions, the female being tested was housed in another room with no visual contact with the male.
After i.m. administration of the studied compounds to the female, the observation of the sexual behaviour began as described subsequently. Ten minutes after the end of drug administration, the sliding wall between the male and the female was pulled away and the observation of sexual activity continued for the next 20 min. At the end of the observation period, the sliding wall was replaced and the female was taken to her home cage in another room.
The occurrence and duration of the following parameters were observed: perineal investigation, mounting, masturbation, ejaculation, male and female grooming, eye contact, tying, yawning, self-scratching, direct male aggression towards the female and teeth grinding. A single mount leading to ejaculation was counted as ejaculation. A single mount not leading to ejaculation was counted as a short term mount. If the interval between mounts was >30 s, the mount was considered to be separate. In Macaca arctoides, male ejaculation reached in copulation or masturbation can be recognised clearly on the basis of its stereotypic manifestations as described in Linnankoski et al. (Arch. Sexual Behav. 10:207-222, 1981).
The experiments were performed once every other day for three days/week. In each female, the effect of atipamezole (Orion Pharma, Turku, Finland) alone (0.03 and 0.3 mg/kg and saline control) was tested during the first two weeks. The effect of apomorphine (Sigma, St.Louis, Mo.) alone (0.125 and 0.25 mg/kg and saline control) was tested during the next two weeks. The combination of a low dose of atipamezole (0.03 mg/kg) with a low dose apomorphine (0.125 mg/kg), a high dose of atipamezole (0.3 mg/kg) with a high dose of apomorphine (0.25 mg/kg), or saline control (two saline injections) was studied during the last two weeks. Owing to the difference in their pharmacokinetic properties, atipamezole (or its saline control) was always administered 10 min before testing session and apomorphine (or its saline control) 20 min before the testing session. The order of testing various doses of drugs and saline control was randomised within each two week testing period. Each dose or the combination was tested twice and the average result of these two sessions was used in final calculations. The experiments were performed in a double-blind fashion.

males [4] = details: cited from earlier work
[5] = test system: dopaminergic, GABAergic, serotonergic (such as 5-HT1A) receptors; details: cited from earlier work
α2-adrenoceptor = details: cited from earlier work
menopausal women = details: oral; cited from earlier work
postmenopausal women = details: cited from earlier work

Q: For COc1ccccc1N1CCN(CCN2C(=O)c3ccccc3C(C)(C)C2=O)CC1 [ARC 239], which “Affinity on 5-HT1A receptors or 5-HT1D receptors” value [1] is on record?
A: Its value is “have affinity”.

Q: With CC1c2ccccc2CN1CC1=NCCN1 (centres unmarked) [BRL 44408] as the compound, how does the “Affinity on 5-HT1A receptors or 5-HT1D receptors” value [1] read?
A: The value was “have affinity”.

Q: With c1ccc2c(c1)OCC(C1=NCCN1)O2 (centres unmarked) [Idazoxan] as the compound, how does the “Affinity on 5-HT1A receptors or 5-HT1D receptors” value [1] read?
A: The value was “have affinity”.

Q: With COC1(C2=NCCN2)COc2ccccc2O1 (centres unmarked) [RX821002, 2-methoxy idazoxan] as the compound, how does the “Affinity on 5-HT1A receptors or 5-HT1D receptors” value [1] read?
A: Its value is “have affinity”.

Q: What does the source list for CN1CCc2cccc3c2[C@H]1Cc1ccc(O)c(O)c1-3 [apomorphine]?
A: Sexual arousal i.e. erections (males [2]): increased; Sexual behaviour, lordosis response [3]: facilitate; Sexual desire and arousal in female primates (female Macaca arctoides): ineffective; Copulations with ejaculation (FIG. 1A) (female Macaca arctoides): failed to be statistically significant; Copulations without ejaculation (FIG. 1B) (female Macaca arctoides): failed to be statistically significant; Total number of copulations, with and without ejaculation pooled (FIG. 1C) (female Macaca arctoides): not significant; Number of short time mounts (FIG. 1D) (female Macaca arctoides): no significant effect

Q: For CCC1(c2c[nH]cn2)Cc2ccccc2C1 [atipamezole, 4-(2-ethyl-2,3-dihydro-1H-inden-2-yl)-1H-imidazole], which “Sexual activity (ejaculations produced by copulation and/or masturbation)” value (males [4]) is on record?
A: The value was “increase”.

Q: And the “Affinity for other neurotransmitter receptors (dopaminergic, GABAergic, serotonergic, benzodiazepine)” value [5]?
A: Its value is “negligible affinity”.

Q: And the α2-/α1-adrenoceptor selectivity ratio (α2-adrenoceptor)?
A: The α2-/α1-adrenoceptor selectivity ratio was “high”.

Q: What about the “Sexual desire and arousal in female primates” value (female Macaca arctoides) of the same compound?
A: The value was “increases”.

Q: And the “Copulations with ejaculation (FIG. 1A)” value (female Macaca arctoides)?
A: The value was “failed to be statistically significant”.

Q: And the “Copulations without ejaculation (FIG. 1B)” value (female Macaca arctoides)?
A: The value was “failed to be statistically significant”.

Q: What about the “Total number of copulations, with and without ejaculation pooled (FIG. 1C)” value (female Macaca arctoides) of the same compound?
A: The value was “significant increase”.

Q: What about the “Number of short time mounts (FIG. 1D)” value (female Macaca arctoides) of the same compound?
A: Its value is “dose-dependent increase”.

Q: Which results are given for COc1ccc2c(c1)CCN1C[C@H]3CCCN(S(C)(=O)=O)[C@H]3C[C@@H]21 [deleguamine, delequamine]?
A: Affinity on 5-HT1A receptors or 5-HT1D receptors [1]: have affinity; Sexual behaviour, lordosis response [3]: facilitate

Q: Which “Sexual arousal i.e. erections” value (males [2]) does the source give for Cc1ccc(N(CC2=NCCN2)c2cccc(O)c2)cc1 [phentolamine] here?
A: The value was “increase”.

Q: And the “Sexual arousal, such as self-reported lubrication” value (menopausal women)?
A: The value was “mild improvement”.

Q: Which “Sexual arousal i.e. erections” value (males [2]) does the source give for CCCc1nn(C)c2c(=O)[nH]c(-c3cc(S(=O)(=O)N4CCN(C)CC4)ccc3OCC)nc12 [sildenafil] here?
A: The value was “increase”.

Q: And the Sexual function (postmenopausal women)?
A: The Sexual function was “did not improve the sexual function significantly”.

Q: For COC(=O)[C@@H]1[C@H]2C[C@H]3c4[nH]c5ccccc5c4CCN3C[C@@H]2CC[C@@H]1O [yohimbine], which “Affinity for other neurotransmitter receptors (dopaminergic, GABAergic, serotonergic, benzodiazepine)” value [5] is on record?
A: The value was “has affinity”.
